PMC4526366 (PLoS ONE, 2015)
“Also recorded” adds a separate entry of the source. Like-named read-outs stand apart in the source and are kept apart here. One block for each compound: values may come before it. Where a SMILES comes first, the peptide text is derived from it. Where no end group is shown, it is not given here.

Tests used:
thrombin (α-thrombin) [1] = assay: thrombin at 1 μM in 1X TBS (10 X dilution of 10 X TBS pH 7.4); settings: 37°C, up to 2 hours
α-thrombin [2] = target: T1, α-thrombin (Homo sapiens, UniProt P00734); assay: Inhibition of thrombin-mediated hydrolysis of S2238; format: biochemical
T1 construct: purchased Sigma; Haematologic Technologies; or prepared in house from prothrombin (Enzyme Research Laboratories) with Oxyuranus scutellatus venom
Protocol: […] Reactions were started by addition of thrombin (0.5 nM) and absorbance was monitored for 10 minutes at 405 nm in a microplate reader. The data were fit to competitive or non-competitive models of inhibition using GraphPad Prism 5. In both cases, nonlinear regression was used to fit to the hyperbolic equation: v=Vmaxapp [S]/(Kmapp+[S]) In the case of competitive inhibition Vmaxapp = Vmax and in the case of noncompetitive inhibition Kmapp = Km.
In the case of competitive inhibition the inhibition constant (Ki) was obtained from fitting of: Kmapp = Km(1+[I]/Ki) .
For noncompetitive inhibition Ki was determined by fitting of: Vmaxapp = Vmax/(1+[I]/Ki)
The experiments were repeated three times.

thrombin [3] = settings: cited from earlier work
factor Xa = settings: cited from earlier work
thrombin [4] = target: T2, thrombin (Homo sapiens, UniProt P00734); assay: biochemical
Protocol: Inhibition of thrombin-mediated activation of FXI in the presence of long-chain (P700) polyphosphate (polyP) was done in according to Choi et al. [17] by adding 2 μM of polyP to buffer (20 mM Tris HCl, pH 7.4, 150 mM NaCl and 0.1% BSA) followed by different concentrations of peptide (23.4 nM to 600 nM). α-Thrombin (5 nM) and 60 nM of FXI were then added and samples were incubated at 37°C for 35 minutes. Reactions were stopped with 50 nM of the thrombin inhibitor anophelin [18, 19] and polybrene to dissociate complexes with polyP. S2236 (Chromogenix Inc.) was added to a concentration of 250 μM and product formed was read as absorbance at 405 nm for 5–10 minutes in a microplate reader. Results were expressed as the percentage of the maximum activity (mAU/min) in the absence of peptide. Experiments were performed in duplicate.

thrombin [5] = target: T2, thrombin; settings: 2 h, 37°C, TBS pH 7.4, MALDI MS; for cleavage by thrombin (peptide remaining / digestion): 25 μM peptide, 1 μM thrombin (25:1)
Protocol: Reactions were stopped by freezing at –20°C until analysis. Samples (2 μl) were desalted in C-8 micro-columns (Ziptip-Milipore), washing 3 times with 0.1% TFA and eluting with 60% acetonitrile in water. Washes were diluted with 4 μl 50% acetonitrile and spotted (0.5–1 μl) on MALDI plates followed by addition of matrix solution. After drying, they were injected into the MS instrument and analyzed in reflectron (peptide plus thrombin) or linear (peptide alone) mode.

BALB/c mice = settings: 2.5 mg/kg intravenous, tail transection after 15 min, hemoglobin by absorbance at 540
Protocol: Briefly, BALB/c mice were anesthetized (xylazine and ketamine) and the common carotid artery was isolated for measuring blood flow continuously using a 0.5-V Doppler flow probe coupled to a TS420 flow meter (Thransonic Systems, Ithaca, NY) [21]. Before induction of thrombosis the tail vein was injected with 50 μl of hyalomin-1 (1 and 2.5 mg/kg) or vehicle (PBS). Thrombi were formed by placing a piece of filter paper (1 x 2 mm) saturated with 7.5% FeCl3 on the adventitial surface or the artery for 3 minutes. After washing with normal saline, blood flow was continuously monitored for 60 minutes or until the blood flow dropped to zero for at least 10 seconds. Tail bleeding was performed on anesthetized mice injected intravenously with peptide (2.5 mg/kg) or vehicle alone (PBS) in 100 μl. After 15 minutes, the distal 2 mm segment was removed and the tail was immersed in 40 ml distilled 37°C warmed water. Absorbance at 540 was measured to estimate hemoglobin content.

α-thrombin [6] = target: T1, α-thrombin; assay: Surface plasmon resonance, thrombin binding to immobilized peptide; settings: 150 mM NaCl
Protocol: Surface plasmon resonance (SPR) was used to measure interaction between immobilized peptides and thrombin using a Biacore T100 instrument. Approximately 500 resonance units of hyalomin-1 biotinylated at Lys1 or its N-terminal cleavage product (01–41) were bound to a neutravidin surface that had been immobilized on C5 chips using the amine coupling procedure. Kinetic measurements were carried out by injecting different concentrations of thrombin in 10 mM HEPES pH 7.4, 150 mM NaCl, 0.05%Tween-20. The chip surface was regenerated using injections of 10 mM glycine pH 2.5. Data were analyzed by global fitting of a 1:1 single state model using the Biacore T100 evaluation software. Binding of γ-thrombin with the same surface was also investigated under similar conditions.

thrombin (α-thrombin) [7] = target: T3, thrombin (α-thrombin) (Homo sapiens, UniProt P00734); assay: Screening for inhibition of serine proteases (fluorogenic substrate hydrolysis); format: biochemical; settings: 1 μM peptide, pre-incubated 30°C 10 min, mean of three independent experiments in triplicate
T3 construct: purchased Sigma; Haematologic Technologies; or prepared in house from prothrombin (Enzyme Research Laboratories) with Oxyuranus scutellatus venom
Protocol: Linear fits of fluorescence increases as a function of time were verified with the Magellan—Data Analysis Software (Tecan group Ltd), and the slope in arbitrary fluorescence units per second (r^2 > 0.95) was used to calculate hydrolysis rate. Each experiment was performed in triplicate and the mean and standard error of three independent experiments were calculated. The substrate hydrolysis rate in the absence of the peptide was considered as 100% and compared with the remaining enzymatic activity in the presence of the peptide.

[8] = 150 mM NaCl, 0.5 nM thrombin, 37°C, pH 7.4, three experiments, read-out: inhibition constant (Ki), competitive model

- cleaved bond (thrombin (α-thrombin) [1]): Arg41-Leu42, two hours
Compound: KPNLQSRSDDGVDESDYDTYPDDNNDDSGERNGGSEPAKPRLPVPGSGRDSERIPVPVD

- cleaved bond (thrombin (α-thrombin) [1]): Arg41-Leu42
Compound: DESDYDTYPDDNNDDSGERNGGSEPAKPRLPV [hyalomin (13–44) sulfated]

Compound: CC[C@H](C)[C@H](NC(=O)[C@H](CCCNC(=N)N)NC(=O)[C@H](CCC(=O)O)NC(=O)[C@H](CO)NC(=O)[C@H](CC(=O)O)NC(=O)[C@H](CCCNC(=N)N)NC(=O)CNC(=O)[C@H](CO)NC(=O)CNC(=O)[C@@H]1CCCN1C(=O)[C@@H](NC(=O)[C@@H]1CCCN1C(=O)[C@@H](N)CC(C)C)C(C)C)C(=O)N1CCC[C@H]1C(=O)N[C@H](C(=O)N1CCC[C@H]1C(=O)N[C@H](C(=O)N[C@@H](CC(=O)O)C(=O)O)C(C)C)C(C)C [42–59] (H-LPVPGSGRDSERIPVPVD-OH)
- Ki (α-thrombin [2]; ionic strength 150 mM, read-out: Ki, non-competitive model): 1700 ± 100 nM
- Ki (α-thrombin [2]; salt concentration 50 mM, read-out: Ki, non-competitive model): 1800 ± 100 nM

Compound: YPERDSAKDGNQEKERALLVKVQERYQGNQGDYDEYDQDETTPPPDPTAQTARPRLRQNQD
- cleaved bond (thrombin [3]): cleaved upstream of this site at Lys21
- cleaved bond (factor Xa): cleaved by factor Xa at Arg16; also recorded: cleaved by factor Xa at Arg25

Compound: KPNLQSRSDDGVDESDYDTYPDDNNDDSGERNGGSEPAKPRLPVPGSGRDSERIPVPVD [hyalomin-1]
- IC50 (thrombin [4]): ~25 nM
- cleavage by thrombin (peptide remaining / digestion) (thrombin [5]): No full-length peptide
- Ki (α-thrombin [2]; 50 mM salt, 0.5 nM thrombin, 37°C, read-out: inhibition constant (Ki), competitive model): 0.4 ± 0.1 nM
- Ki (α-thrombin [2]; [8]): 11.9 ± 1.8 nM
- potency of the inhibitor over incubation time with thrombin (α-thrombin [2]; 800:1 peptide to enzyme (400 nM peptide, 0.5 nM thrombin), 37°C, six hour incubation, 50 μM S2238): diminished in a time-dependent manner
- tail bleeding (BALB/c mice): significant bleeding
- Kd (α-thrombin [6]; SPR, immobilized biotinylated peptide, read-out: calculated dissociation equilibrium constant (KD)): 19 nM
- kon (α-thrombin [6]; peptide biotinylated at N-terminal lysine on neutravidin surface, pH 7.4, 1:1 model, read-out: association rate constant (ka)): 1e+06 M⁻¹ s⁻¹
- koff (α-thrombin [6]; peptide biotinylated at N-terminal lysine on neutravidin surface, pH 7.4, 1:1 model, read-out: dissociation rate constant (kd)): 0.02 s⁻¹
- loss of thrombin control activity in the presence of the peptide (thrombin (α-thrombin) [7]): 72%

- cleaved bond (thrombin (α-thrombin) [1]): Arg41-Leu42, 2 hr
Compound: DESDYDTYPDDNNDDSGERNGGSEPAKPRLPV [hyalomin-1 (13–44)]

Compound: CC[C@H](C)[C@H](NC(=O)[C@H](CCCNC(=N)N)NC(=O)[C@H](CCC(=O)O)NC(=O)[C@H](CO)NC(=O)[C@H](CC(=O)O)NC(=O)[C@H](CCCNC(=N)N)NC(=O)CNC(=O)[C@H](CO)NC(=O)CNC(=O)[C@@H]1CCCN1C(=O)[C@@H](NC(=O)[C@@H]1CCCN1C(=O)[C@H](CC(C)C)NC(=O)[C@H](CCCNC(=N)N)NC(=O)[C@@H]1CCCN1C(=O)[C@H](CCCCN)NC(=O)[C@H](C)NC(=O)[C@@H]1CCCN1C(=O)[C@@H](N)CCC(=O)O)C(C)C)C(=O)N1CCC[C@H]1C(=O)N[C@H](C(=O)N1CCC[C@H]1C(=O)N[C@H](C(=O)N[C@@H](CC(=O)O)C(=O)O)C(C)C)C(C)C [36–59] (H-EPAKPRLPVPGSGRDSERIPVPVD-OH)
- cleavage in thrombin-free control (thrombin [5]; 25 μM peptide without thrombin): no cleavage
- cleavage by thrombin (peptide remaining / digestion) (thrombin [5]): complete digestion
- Ki (α-thrombin [2]; [8]): 100 ± 2 nM
- Ki (α-thrombin [2]; salt concentration 50 mM, read-out: Ki, competitive model): 180 ± 30 nM

- cleaved bond (thrombin (α-thrombin) [1]): Arg41-Leu42, two hours
Compound: EPAKPRLPVPGSGRDSERIPVPVD

Compound: YPERDSAKEGNQEQERALHVKVQKRTDGDADYDEYEEDGTTPTPDPTAPTAKPRLRGNKP
- cleaved bond (thrombin [3]): Arg54-Leu55; also recorded: cleaved upstream of this site at Lys21
- cleaved bond (factor Xa): cleaved by factor Xa at Arg25; also recorded: cleaved by factor Xa at Arg54; also recorded: cleaved by factor Xa at Arg16
